# Assay results reported in patent US20070049593A1 (priority 2004, published 2007).
# Structures can show the parent of a compound that is named as a salt.
# Target: T1, HCV polymerase (Hepatitis C virus genotype 1b, UniProt P26663)
# T1 construct: a region encoding NS5B (J Virol 1991 March, 65(3), 1105-13, 544 amino acids after deletion of 47 amino acids on the C-terminal); 6xHis (C); made in house; host or cells: Escherichia coli
# Test: biochemical
# Parameters: species or system HCV BK strain
# Outline: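 His-tagged NS5B (BK strain, 47-aa C-terminal deletion, E. coli-expressed) at 0.5 μg/ml copied 5 μg/ml run-off RNA bearing the HCV 3′ UTR with 2 μM UTP plus [3H]UTP, 50 μM ATP/GTP, in pH 7.5 Tris with 5 mM MgCl2, 25 °C, 90 min. TCA-precipitated RNA was counted and IC50 calculated.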
# T1 sequence (P26663 2420-2963): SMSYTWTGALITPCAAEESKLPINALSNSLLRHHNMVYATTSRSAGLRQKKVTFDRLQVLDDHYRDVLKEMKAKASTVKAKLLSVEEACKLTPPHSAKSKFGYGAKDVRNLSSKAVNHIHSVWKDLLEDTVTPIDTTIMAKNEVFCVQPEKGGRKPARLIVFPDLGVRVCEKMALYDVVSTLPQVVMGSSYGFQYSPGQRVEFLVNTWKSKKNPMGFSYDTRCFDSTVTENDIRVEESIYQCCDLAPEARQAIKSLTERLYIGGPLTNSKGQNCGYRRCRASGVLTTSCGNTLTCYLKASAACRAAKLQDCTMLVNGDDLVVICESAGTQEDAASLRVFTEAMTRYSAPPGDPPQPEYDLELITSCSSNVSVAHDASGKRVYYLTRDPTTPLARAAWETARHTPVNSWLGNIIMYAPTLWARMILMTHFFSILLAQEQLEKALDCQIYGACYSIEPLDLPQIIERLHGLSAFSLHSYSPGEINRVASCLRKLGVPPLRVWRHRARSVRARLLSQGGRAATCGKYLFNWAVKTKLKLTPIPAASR
row,Structure (SMILES),IC50 [µM]
1,"O=C(O)c1ccc2c(C3CCCCC3)c3n(c2c1)CCN(CCN1CCN(c2ccccc2)CC1)c1ccccc1-3 [Example 1-82, 13-cyclohexyl-5-[2-(4-phenylpiperazin-1-yl)ethyl]-6,7-dihydro-5H-benzo[5,6][1,4]diazepino[7,1-a]indole-10-carboxylic acid trihydrochloride]",< 0.1
2,"O=C(O)c1ccc2c(C3CCCCC3)c3n(c2c1)CCOc1c-3cccc1N(CCN1CCCCC1)Cc1ccccc1 [Example 2-191, 4-{N-benzyl-N-[2-(piperidin-1-yl)ethyl]amino}-12-cyclohexyl-6,7-dihydro-5-oxa-7a-azadibenzo[a,e]azulene-9-carboxylic acid dihydrochloride]",< 0.1
3,"COc1ccc2c(c1)OCCn1c-2c(C2CCCCC2)c2ccc(C(=O)N[C@@H](Cc3ccc(N)cc3)C(=O)O)cc21 [Example 2-320, (S)-3-(4-aminophenyl)-2-[(12-cyclohexyl-3-methoxy-6,7-dihydro-5-oxa-7a-azadibenzo[a,e]azulene-9-carbonyl)amino]propionic acid]",< 0.1
4,"Cc1ccc2c(c1)N(CCN1CCCC(COC(C)C)C1)CCn1c-2c(C2CCCCC2)c2ccc(C(=O)O)cc21 (centres unmarked) [Example 1-407, 13-cyclohexyl-5-[2-(3-isopropoxymethylpiperidin-1-yl)ethyl]-3-methyl-6,7-dihydro-5H-benzo[5,6][1,4]diazepino[7,1-a]indole-10-carboxylic acid dihydrochloride]",< 0.1
5,"O=C(O)c1ccc2c(C3CCCCC3)c3n(c2c1)CCN(CCN1CCCCC1)c1cc(OCc2ccccc2)ccc1-3 [Example 1-211, 3-benzyloxy-13-cyclohexyl-5-[2-(piperidin-1-yl)ethyl]-6,7-dihydro-5H-benzo[5,6][1,4]diazepino[7,1-a]indole-10-carboxylic acid dihydrochloride]",< 0.1
6,"O=C(O)c1ccc2c(C3CCCCC3)c3n(c2c1)CCCN(CCN1CCCCC1)c1cc(Cl)ccc1-3 [Example 8-7, 3-chloro-14-cyclohexyl-5-[2-(piperidin-1-yl)ethyl]-5,6,7,8-tetrahydrobenzo[6,7][1,5]diazocino[8,1-a]indole-11-carboxylic acid dihydrochloride]",< 0.1
7,"COC(=O)[C@H](Cc1ccc(N)cc1)NC(=O)c1ccc2c(C3CCCCC3)c3n(c2c1)CCOc1cc(OC)ccc1-3 [Example 2-319, methyl (S)-3-(4-aminophenyl)-2-[(12-cyclohexyl-3-methoxy-6,7-dihydro-5-oxa-7a-azadibenzo[a,e]azulene-9-carbonyl)amino]propionate]",< 0.1
8,"COc1ccc2c(c1)OCCn1c-2c(C2CCCCC2)c2ccc(C(=O)N[C@@H](Cc3ccc(N)cc3)c3csc(C)n3)cc21 [Example 2-414, N—[(S)-2-(4-aminophenyl)-1-(2-methylthiazol-4-yl)ethyl]-12-cyclohexyl-3-methoxy-6,7-dihydro-5-oxa-7a-azadibenzo[a,e]azulene-9-carboxamide]",< 0.1
9,"COC(=O)CN1CCC(NC(=O)c2ccc3c(C4CCCCC4)c4n(c3c2)CCOc2ccccc2-4)(c2nc3ccccc3[nH]2)CC1 [Example 2-248, methyl (4-(1H-benzimidazol-2-yl)-4-[(12-cyclohexyl-6,7-dihydro-5-oxa-7a-azadibenzo[a,e]azulene-9-carbonyl)amino]piperidin-1-yl]acetate monohydrochloride]",< 0.1
10,"O=C(O)c1ccc2c(C3CCCCC3)c3n(c2c1)CCOc1c-3cccc1N1CCCCC1=O [Example 2-344, 12-cyclohexyl-4-(2-oxopiperidin-1-yl)-6,7-dihydro-5-oxa-7a-azadibenzo[a,e]azulene-9-carboxylic acid]",< 0.1
11,"COCC[C@@H]1CCCN(CCN2CCn3c(c(C4CCCCC4)c4ccc(C(=O)O)cc43)-c3ccc(C)cc32)C1 [Example 1-413, 13-cyclohexyl-5-{2-[(S)-3-(2-methoxyethyl)piperidin-1-yl]ethyl}-3-methyl-6,7-dihydro-5H-benzo[5,6][1,4]diazepino[7,1-a]indole-10-carboxylic acid dihydrochloride]",< 0.1
12,"COC(=O)N1CCC(CCN2CCn3c(c(C4CCCCC4)c4ccc(C(=O)O)cc43)-c3ccc(Cl)cc32)CC1 [Example 1-580, 3-chloro-13-cyclohexyl-5-[2-(1-methoxycarbonylpiperidin-4-yl)ethyl]-6,7-dihydro-5H-benzo[5,6][1,4]diazepino[7,1-a]indole-10-carboxylic acid]",< 0.1
13,"O=C(O)c1ccc2c(C3CCCCC3)c3n(c2c1)CCN(CCCN1CCCCCC1)c1ccccc1-3 [Example 1-194, 5-[3-(azepan-1-yl)propyl]-13-cyclohexyl-6,7-dihydro-5H-benzo[5,6][1,4]diazepino[7,1-a]indole-10-carboxylic acid dihydrochloride]",< 0.1
14,"COCC[C@@H]1CCCN(CCN2CCn3c(c(C4CCCCC4)c4ccc(C(=O)O)cc43)-c3ccc(OC(F)(F)F)cc32)C1 [Example 1-523, 13-cyclohexyl-5-{2-[(S)-3-(2-methoxyethyl)piperidin-1-yl]ethyl}-3-trifluoromethoxy-6,7-dihydro-5H-benzo[5,6][1,4]diazepino[7,1-a]indole-10-carboxylic acid dihydrochloride]",< 0.1
15,"Cc1nc(C(C)(C)NC(=O)c2ccc3c(C4CCCCC4)c4n(c3c2)CCOc2ccccc2-4)n(CCO)c1C [Example 2-292, N-{1-[1-(2-hydroxyethyl)-4,5-dimethyl-1H-imidazol-2-yl]-1-methylethyl}-12-cyclohexyl-6,7-dihydro-5-oxa-7a-azadibenzo[a,e]azulene-9-carboxamide]",0.1 to 1
16,"CC1CN(CCN2CCn3c(c(C4CCCCC4)c4ccc(C(=O)O)cc43)-c3ccc(Cl)cc32)CCO1 (centres unmarked) [Example 1-328, 3-chloro-13-cyclohexyl-5-[2-(2-methylmorpholin-4-yl)ethyl]-6,7-dihydro-5H-benzo[5,6][1,4]diazepino[7,1-a]indole-10-carboxylic acid dihydrochloride]",< 0.1
17,"O=C(O)c1ccc2nc(C3(NC(=O)c4ccc5c(C6CCCCC6)c6n(c5c4)CCOc4ccccc4-6)CCC3)[nH]c2c1 [Example 2-160, 2-{1-[(12-cyclohexyl-6,7-dihydro-5-oxa-7a-azadibenzo[a,e]azulene-9-carbonyl)amino]cyclobutyl}-3H-benzimidazole-5-carboxylic acid]",< 0.1
18,"O=C(O)c1ccc2c(C3CCCCC3)c3n(c2c1)CCN(CCCC1CCCN(C2CCCC2)C1)c1cc(Cl)ccc1-3 (centres unmarked) [Example 1-412, 3-chloro-13-cyclohexyl-5-[3-(1-cyclopentylpiperidin-3-yl)propyl]-6,7-dihydro-5H-benzo[5,6][1,4]diazepino[7,1-a]indole-10-carboxylic acid dihydrochloride]",< 0.1
19,"O=C(O)c1ccc2c(C3CCCCC3)c3n(c2c1)CCN(CC(=O)N1Cc2ccccc2C1)c1ccccc1-3 [Example 1-140, 13-cyclohexyl-5-[2-(1,3-dihydroisoindol-2-yl)-2-oxoethyl]-6,7-dihydro-5H-benzo[5,6][1,4]diazepino[7,1-a]indole-10-carboxylic acid monohydrochloride]",< 0.1
20,"CN(C)C(=O)CN1CCN(c2ccc(N3CCCC3=O)cc2COc2ccc3c(c2)OCCn2c-3c(C3CCCCC3)c3ccc(C(=O)O)cc32)CC1 [Example 2-27, 12-cyclohexyl-3-[2-(4-dimethylcarbamoylmethylpiperazin-1-yl)-5-(2-oxopyrrolidin-1-yl)benzyloxy]-6,7-dihydro-5-oxa-7a-azadibenzo[a,e]azulene-9-carboxylic acid dihydrochloride]",< 0.1
21,"O=C(O)c1ccc2c(C3CCCCC3)c3n(c2c1)CCN(CC1CCOCC1)c1ccccc1-3 [Example 1-120, 13-cyclohexyl-5-(tetrahydropyran-4-ylmethyl)-6,7-dihydro-5H-benzo[5,6][1,4]diazepino[7,1-a]indole-10-carboxylic acid monohydrochloride]",< 0.1
22,"COCCC1CCCCN1CCN1CCn2c(c(C3CCCCC3)c3ccc(C(=O)O)cc32)-c2ccc(C)cc21 (centres unmarked) [Example 1-542, 13-cyclohexyl-5-{2-[2-(2-methoxyethyl)piperidin-1-yl]ethyl}-3-methyl-6,7-dihydro-5H-benzo[5,6][1,4]diazepino[7,1-a]indole-10-carboxylic acid dihydrochloride]",< 0.1
23,"CC(C)(NC(=O)c1ccc2c(C3CCCCC3)c3n(c2c1)CCOc1ccccc1-3)c1nc2ccc(C(N)=O)cc2[nH]1 [Example 2-225, N-[1-(6-carbamoyl-1H-benzimidazol-2-yl)-1-methylethyl]-12-cyclohexyl-6,7-dihydro-5-oxa-7a-azadibenzo[a,e]azulene-9-carboxamide]",< 0.1
24,"Cn1c(C(C)(C)NC(=O)c2ccc3c(C4CCCCC4)c4n(c3c2)CCOc2ccccc2-4)nc2ccccc21 [Example 2-285, N-[1-methyl-1-(1-methyl-1H-benzimidazol-2-yl)ethyl]-12-cyclohexyl-6,7-dihydro-5-oxa-7a-azadibenzo[a,e]azulene-9-carboxamide]",< 0.1
25,"COc1ccc2c(c1)OCCn1c-2c(C2CCCCC2)c2ccc(C(=O)NC3(c4nc5ccc(C(=O)O)cc5[nH]4)CCOCC3)cc21 [Example 2-409, 2-{4-[(12-cyclohexyl-3-methoxy-6,7-dihydro-5-oxa-7a-azadibenzo[a,e]azulene-9-carbonyl)amino]tetrahydropyran-4-yl]-3H-benzimidazole-5-carboxylic acid]",< 0.1
26,"O=C(O)c1ccc2c(C3CCCCC3)c3n(c2c1)CCOc1c(-c2ccccc2CO)cccc1-3 [Example 2-325, 12-cyclohexyl-4-(2-hydroxymethylphenyl)-6,7-dihydro-5-oxa-7a-azadibenzo[a,e]azulene-9-carboxylic acid]",< 0.1
